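How tested: cells in 96-well plates exposed to compound for 48 hours at five concentrations. GI50 = concentration required for 50% inhibition of growth. TGI denotes the concentration required for complete inhibition of growth.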 Where a SMILES comes first, the peptide text is derived from it. The star is where a group is joined. Boc = CC(C)(C)OC(=O)*
How the values were obtained:
Assay in all cases: DTP human tumour cell line panel, 48 h
CAKI-1 renal = tested on: CAKI-1 renal
SNB-19 CNS = tested on: SNB-19 CNS
HCT-15 colon = tested on: HCT-15 colon
MALME-3M melanoma = tested on: MALME-3M melanoma
SR leukemia = tested on: SR leukemia
MCF7 breast = tested on: MCF7 breast
UACC-62 melanoma = tested on: UACC-62 melanoma
NCI/ADR-RES ovarian = tested on: NCI/ADR-RES ovarian
HS 578T breast = tested on: HS 578T breast
SNB-75 CNS = tested on: SNB-75 CNS

SMILES	TGI (CAKI-1 renal) [µM]	TGI (SNB-19 CNS) [µM]	TGI (HCT-15 colon) [µM]	TGI (MALME-3M melanoma) [µM]	TGI (SR leukemia) [µM]	TGI (MCF7 breast) [µM]	TGI (UACC-62 melanoma) [µM]	TGI (NCI/ADR-RES ovarian) [µM]	TGI (HS 578T breast) [µM]	TGI (SNB-75 CNS) [µM]	GI50 (CAKI-1 renal) [µM]	GI50 (HCT-15 colon) [µM]	GI50 (HS 578T breast) [µM]	GI50 (SR leukemia) [µM]	GI50 (UACC-62 melanoma) [µM]	GI50 (NCI/ADR-RES ovarian) [µM]
COc1ccc2nc(-c3ccc(O)cc3)sc2c1	57.5	> 100	36.5	51.6	22.5	> 100	42.9	72.6	–	–	–	–	–	–	–	–
CCOC(=O)c1ccc(NCC#CCN2CCCCC2)cc1	–	> 100	> 100	> 100	> 100	> 100	> 100	> 100	> 100	–	–	–	–	–	–	–
Cc1ccc(S(=O)(=O)N2CCCSCC2)cc1	–	> 100	> 100	–	> 100	> 100	–	> 100	> 100	> 100	–	–	–	–	–	–
C=CCc1cccc2cc(C(=O)Nc3ccccn3)c(=N)oc12	> 100	> 100	> 100	–	> 100	> 100	> 100	> 100	> 100	> 100	–	–	–	–	–	–
C[C@@H]1CC[C@@H]2[C@@H](C1)O[C@@H]([C@H](C)OCc1ccccc1)SC2(C)C	> 100	36.8	82.7	53.1	35.6	31.5	> 100	75.5	–	49.2	–	–	–	–	–	–
CC1(C)CCC[C@]2(C)[C@H]3[C@H](C#N)c4cc(O)c(O)cc4O[C@@]3(C)CC[C@@H]12	> 10	> 10	> 10	–	> 10	> 10	–	> 10	> 10	–	–	–	–	–	–	–
COc1ccccc1C(=O)c1c(NCc2ccccc2)c(=O)c1=O	> 100	> 100	> 100	75.9	–	–	> 100	> 100	> 100	> 100	–	–	–	–	–	–
Cc1nc2c(=O)n(C)ncc2[nH]1	> 100	> 100	> 100	–	> 100	> 100	> 100	> 100	> 100	> 100	–	–	–	–	–	–
Cc1ccc2c(c1)-c1nc(N)c(C#N)c(-c3ccccc3)c1CCS2(=O)=O	> 100	67.7	> 100	87.3	–	–	> 100	> 100	68.1	81.8	–	–	–	–	–	–
O=c1/c(=C/c2ccc(-c3ccc(Cl)cc3Cl)o2)sc2n1[C@@H](c1ccc(Cl)cc1)C=C(c1cc(F)c(Cl)cc1Cl)N=2	> 100	> 100	> 100	> 100	–	> 100	> 100	> 100	> 100	> 100	–	–	–	–	–	–
COc1ccc(SCc2cc(OCc3ccccc3)c(OCc3ccccc3)c(OCc3ccccc3)c2)cc1	3.02	3.19	3.47	3.37	–	–	–	3.38	–	3	–	–	–	–	–	–
CCN(CC)C(=O)C(C)n1cc(C)c(=O)[nH]c1=O (stereo not drawn)	–	> 100	> 100	> 100	–	–	> 100	–	–	98.6	–	–	–	–	–	–
CC(=O)O[C@H]1[C@H](OC(=O)CC(C)(O)CC(=O)O)C[C@]2(C)C3=C(CCC2C1(C)C)[C@]1(C)CC[C@H]([C@H]2CC[C@H](C(C)(C)O)OC2O)[C@@]1(C)[C@@H](O)C3 (stereo partly drawn)	36.7	33.6	34.9	57.3	60.1	45.8	37	> 100	41.9	–	–	–	–	–	–	–
O=C1c2ccc(O)c(O)c2C(=O)c2c(O)ccc(O)c21	–	85.3	89.1	–	93.7	–	41.6	–	–	–	–	–	–	–	–	–
C=C1C2C[C@@H]3O[C@H]4C[C@H]5O[C@@]6(C[C@@H]7O[C@]8(C[C@H](C)[C@@H]9O[C@@H]%10CC(CO)O[C@@H]%10C[C@@H]9O8)C[C@H](C)[C@@H]7O6)C[C@H]5O[C@H]4[C@H](C)[C@H]3OC(=O)C[C@H]3CC[C@@H]4OC5[C@H]6O[C@]7(CC[C@H]8CC(=C)[C@H](CC[C@@H](C[C@H]1C)O2)O8)CC6O[C@@H]5[C@@H](O7)[C@H]4O3 (stereo partly drawn)	> 1	> 1	–	> 1	> 1	–	> 1	> 1	< 0.0001	> 1	–	–	–	–	–	–
CCN1CCC(O)(c2ccc(Cl)cc2)C(C(=O)c2ccc(Cl)cc2)C1 (stereo not drawn)	–	> 100	–	–	> 100	–	> 100	–	–	> 100	–	–	–	–	–	–
CC(=O)c1cc2ccccc2oc1=O	> 100	> 100	> 100	> 100	> 100	> 100	–	> 100	> 100	> 100	–	–	–	–	–	–
OC(c1cc(C23CC4CC(CC(C4)C2)C3)nc2c(Cl)cc(Cl)cc12)C1CCCCN1 (stereo not drawn)	3.24	–	–	3.71	2.84	2.9	3.16	–	3.89	2.96	–	–	–	–	–	–
COc1ccc(-c2cc3[nH]nc(N)c3c(=O)o2)cc1	> 100	> 100	> 100	> 100	> 100	–	–	–	–	> 100	–	–	–	–	–	–
COCN1C(=O)[C@@H]2CCCN2C(=O)c2cc(N)ccc21	> 100	> 100	> 100	> 100	–	> 100	> 100	> 100	> 100	> 100	–	–	–	–	–	–
CC(=O)Nc1c(C)cc2c(nc3n2CCC3O)c1[N+](=O)[O-] (stereo not drawn)	> 100	> 100	> 100	> 100	–	> 100	> 100	> 100	> 100	> 100	–	–	–	–	–	–
C=CC(Cl)(CBr)CCC(Br)C(C)(C)Cl (stereo not drawn)	–	32.8	36.7	35.8	–	20.1	30.5	49.8	> 100	68.8	–	–	–	–	–	–
Nc1nc2c3nc(Nc4ccccc4)sc3nc(=O)n2c2sc(Nc3ccccc3)nc12	–	> 100	> 100	> 100	> 100	–	> 100	–	–	> 100	–	–	–	–	–	–

SMILES	TGI (CAKI-1 renal) [µM]	TGI (SNB-19 CNS) [µM]	TGI (HCT-15 colon) [µM]	TGI (MALME-3M melanoma) [µM]	TGI (SR leukemia) [µM]	TGI (MCF7 breast) [µM]	TGI (UACC-62 melanoma) [µM]	TGI (NCI/ADR-RES ovarian) [µM]	TGI (HS 578T breast) [µM]	TGI (SNB-75 CNS) [µM]	GI50 (CAKI-1 renal) [µM]	GI50 (HCT-15 colon) [µM]	GI50 (HS 578T breast) [µM]	GI50 (SR leukemia) [µM]	GI50 (UACC-62 melanoma) [µM]	GI50 (NCI/ADR-RES ovarian) [µM]
COc1cc2c(cc1OCCCC(=O)Nc1ccc3ccc4cccc5ccc1c3c45)N=C[C@@H]1CCCN1C2=O	1.63	–	> 100	–	–	0.297	0.0263	0.262	0.064	1.12	0.434	0.169	< 0.0167	< 0.01	< 0.01	0.0543
CO/N=C(\C)c1cccc(Nc2c3ccccc3nc3occc23)c1	19.2	45.5	50.4	34.5	16.4	28.6	22.5	15.6	41	–	–	–	–	–	–	–
NC(=S)N/N=C\c1nccc2ccccc12	–	> 100	> 100	> 23.1	0.731	11.9	0.538	1.13	> 100	–	–	–	–	–	–	–
COC(=O)C1(C)C=CC(=O)C2(C)C1C(O)C1OC3CC(c4ccoc4)C(C)=C3C1(C)C2CC(=O)O (stereo not drawn)	> 100	> 100	> 100	> 100	–	> 100	> 100	> 100	> 100	> 100	–	–	–	–	–	–
NC(N)=Nc1ccc(CC(N)C(=O)O)cc1 (stereo not drawn)	> 12.5	–	> 12.5	> 12.5	> 12.5	> 12.5	> 12.5	> 12.5	> 12.5	> 12.5	–	–	–	–	–	–
O=C1CC(c2ccccc2)n2cccc21 (stereo not drawn)	> 100	> 100	> 100	–	> 100	> 100	> 100	> 100	> 100	> 100	–	–	–	–	–	–
COc1cc(/C=c2\sc3n(c2=O)C(c2ccc(Cl)cc2)C2=C(CCCC2C)N=3)cc(OC)c1OC (stereo not drawn)	> 100	> 100	> 100	–	> 100	> 100	> 100	–	> 100	> 100	–	–	–	–	–	–
CC(=O)C1CC[C@@H]2[C@H](CC[C@]3(C)[C@@H](O)CC[C@@H]23)[C@H]1C(=O)O (stereo partly drawn)	> 100	> 100	> 100	> 100	> 100	> 100	> 100	> 100	> 100	–	–	–	–	–	–	–
COC(=O)C(Cc1c[nH]c2ccccc12)NC(=O)C(Cc1c[nH]c2ccccc12)NC(=O)C(Cc1c[nH]c2ccccc12)NC(=O)C(Cc1c[nH]c2ccccc12)NC(=O)C(Cc1c[nH]c2ccccc12)NC(=O)C(Cc1c[nH]c2ccccc12)NC(=O)C(Cc1c[nH]c2ccccc12)NC(=O)C(Cc1c[nH]c2ccccc12)NC(=O)OC(C)(C)C (stereo not drawn) (Boc-WWWWWWWW-OMe; configuration not given here)	> 100	> 100	> 100	> 100	> 100	> 100	> 100	–	–	> 100	–	–	–	–	–	–
O=C1c2ccccc2C(=O)N1CC(O)COc1cccc2ccccc12 (stereo not drawn)	> 100	> 100	> 100	> 100	> 100	> 100	> 100	> 100	–	–	–	–	–	–	–	–
N#Cc1ccc(-n2c3ccccc3c3ccc4c(c32)C(=O)C=CC4=O)cc1	2.72	26.6	16.1	–	6.92	8.04	15.6	53.9	39.3	> 53.3	–	–	–	–	–	–
OCCNCNc1nc(NCNCCO)nc(N(CNCCO)CNCCO)n1	57.7	38.1	61.6	33.2	–	> 78.9	35.6	54	> 78.8	50.6	–	–	–	–	–	–
CN(C)c1nc(Cl)c2c(-c3ccccc3)c(-c3ccccc3)oc2n1	> 100	> 100	> 100	–	> 100	> 100	> 100	> 100	> 100	> 100	–	–	–	–	–	–
C=C(C)[C@@H]1CCC2=C[C@H](OC2=O)[C@@]2(C)C[C@@H]2C2=CC(C)=C(O2)[C@H]1O	> 75	> 75	> 75	> 75	> 75	> 75	> 75	> 75	–	> 75	–	–	–	–	–	–
COc1cc(Cc2nccc3cc(OC)c(OC)cc23)c(N=NN(C)C)cc1OC	22.3	85.2	19.6	38.4	–	37.3	28.9	96.7	86.5	> 100	–	–	–	–	–	–
COC(=O)c1c2cccccc-2c(Cc2c3cccccc-3c(C(=O)OC)c2O)c1O	> 100	> 100	> 100	> 100	> 100	–	> 100	–	–	> 100	–	–	–	–	–	–
C=C1CCC([N+](=O)[O-])[C@](C)(N=O)CC[C@@H]2C1CC2(C)C (stereo partly drawn)	> 100	77.9	65.4	49.5	> 100	39.6	–	82	39	45.3	–	–	–	–	–	–
CCOC(=O)c1ccc(N=c2sc3ccccc3nc2Nc2ccc(C(=O)OCC)cc2)cc1	> 100	> 100	> 100	> 100	> 100	–	> 100	> 100	> 100	> 100	–	–	–	–	–	–
CO/N=C(\C)CCC#Cc1ccccc1C(=O)OC	> 10	> 10	> 10	> 10	> 10	> 10	> 10	> 10	> 10	–	–	–	–	–	–	–
CC(=O)O[C@H]1C(=O)[C@@]2(C)C(C(OC(=O)c3ccccc3)C3[C@@H](O)C(OC(=O)[C@@H](O)[C@H](NC(=O)c4ccccc4)c4ccc(C(F)(F)F)cc4)C(C)=C1C3(C)C)[C@]1(OC(C)=O)CO[C@@H]1C[C@@H]2O (stereo partly drawn)	> 25	> 25	> 25	> 25	> 25	–	> 25	–	–	> 25	–	–	–	–	–	–
CCC(C#N)NCc1cccc(CNC(C#N)CC)c1 (stereo not drawn)	> 100	> 100	> 100	> 100	–	> 100	> 100	> 100	> 100	–	–	–	–	–	–	–
COc1ccc(/C=C2\CCC(C)C3=C2N=c2s/c(=C/c4cccc(Br)c4)c(=O)n2C3c2ccc(OC)c(OC)c2)cc1OC (stereo not drawn)	> 100	> 100	> 100	–	> 100	> 100	> 100	–	> 100	–	–	–	–	–	–	–
